From PubChem BioAssay AID1845206 (Molecular Pharmacology Branch, DTP, NCI, 2023)

Test system: NCI-H1618 multicellular tumor spheroid viability
Experiment: Anticancer human tumor NCI-H1618 cell line growth inhibition;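 note: spheroids exposed to agents for 7 days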
Details: for IC50: curve of first compound; for viability, T/C: stronger effect = lower value
Method in brief: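 Complex spheroids of malignant cells with endothelial cells and mesenchymal stem cells; agents alone or combined, from near clinical Cmax (or 10 microM if unknown) down in half-log steps, 0.25% DMSO final.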

[1] = second compound 0.003 µM, first compound 0.00949 µM
[2] = second compound 0.003 µM, first compound 0.03 µM
[3] = second compound 0.003 µM, first compound 0.0949 µM
[4] = second compound 0.003 µM, first compound 0.3 µM
[5] = second compound 0.003 µM, first compound 0.949 µM
[6] = second compound 0.003 µM, first compound 3 µM
[7] = second compound 0.00949 µM, first compound 0.00949 µM
[8] = second compound 0.00949 µM, first compound 0.03 µM
[9] = second compound 0.00949 µM, first compound 0.0949 µM
[10] = second compound 0.00949 µM, first compound 0.3 µM
[11] = second compound 0.00949 µM, first compound 0.949 µM
[12] = second compound 0.00949 µM, first compound 3 µM
[13] = second compound 0.03 µM, first compound 0.00949 µM
[14] = second compound 0.03 µM, first compound 0.03 µM
[15] = second compound 0.03 µM, first compound 0.0949 µM
[16] = second compound 0.03 µM, first compound 0.3 µM
[17] = second compound 0.03 µM, first compound 0.949 µM
[18] = second compound 0.03 µM, first compound 3 µM
[19] = second compound 0.0949 µM, first compound 0.00949 µM
[20] = second compound 0.0949 µM, first compound 0.03 µM
[21] = second compound 0.0949 µM, first compound 0.0949 µM
[22] = second compound 0.0949 µM, first compound 0.3 µM
[23] = second compound 0.0949 µM, first compound 0.949 µM
[24] = second compound 0.0949 µM, first compound 3 µM
[25] = second compound 0.3 µM, first compound 0.00949 µM
[26] = second compound 0.3 µM, first compound 0.03 µM
[27] = second compound 0.3 µM, first compound 0.0949 µM
[28] = second compound 0.3 µM, first compound 0.3 µM
[29] = second compound 0.3 µM, first compound 0.949 µM
[30] = second compound 0.3 µM, first compound 3 µM

CC1COCCN1c1cc(-c2ccnn2C)c2ccnc(-c3ccn[nH]3)c2n1 (stereo not drawn) + COc1cc2c(cc1O)CCNC21CSC2c3c(OC(C)=O)c(C)c4c(c3C(COC1=O)N1C(O)C3Cc5cc(C)c(OC)c(O)c5C(C21)N3C)OCO4
IC50 (second compound 30 pM): < 31.6 nM | IC50 (second compound 94.9 pM): < 31.6 nM | IC50 (second compound 0.0003 µM): < 31.6 nM | IC50 (second compound 0.000949 µM): < 31.6 nM | IC50 (second compound 0.003 µM): < 31.6 nM | viability, T/C (second compound 30 pM, first compound 0.0316 µM): 41% | viability, T/C (second compound 30 pM, first compound 0.1 µM): 8.59% | viability, T/C (second compound 30 pM, first compound 0.316 µM): 2.6% | viability, T/C (second compound 30 pM, first compound 1 µM): 1.69% | viability, T/C (second compound 30 pM, first compound 3.16 µM): 1.44% | viability, T/C (second compound 30 pM, first compound 10 µM): 1.07% | viability, T/C (second compound 94.9 pM, first compound 0.0316 µM): 4.76% | viability, T/C (second compound 94.9 pM, first compound 0.1 µM): 7.64% | viability, T/C (second compound 94.9 pM, first compound 0.316 µM): 1.66% | viability, T/C (second compound 94.9 pM, first compound 1 µM): 2.1% | viability, T/C (second compound 94.9 pM, first compound 3.16 µM): 0.97% | viability, T/C (second compound 94.9 pM, first compound 10 µM): 1.13% | viability, T/C (second compound 0.0003 µM, first compound 0.0316 µM): 7.32% | viability, T/C (second compound 0.0003 µM, first compound 0.1 µM): 1.52% | viability, T/C (second compound 0.0003 µM, first compound 0.316 µM): 2.44% | viability, T/C (second compound 0.0003 µM, first compound 1 µM): 1.22% | viability, T/C (second compound 0.0003 µM, first compound 3.16 µM): 1.2% | viability, T/C (second compound 0.0003 µM, first compound 10 µM): 1.07% | viability, T/C (second compound 0.000949 µM, first compound 0.0316 µM): 1.86% | viability, T/C (second compound 0.000949 µM, first compound 0.1 µM): 2.16% | viability, T/C (second compound 0.000949 µM, first compound 0.316 µM): 1.58% | viability, T/C (second compound 0.000949 µM, first compound 1 µM): 1.26% | viability, T/C (second compound 0.000949 µM, first compound 3.16 µM): 1.11% | viability, T/C (second compound 0.000949 µM, first compound 10 µM): 1.22% | viability, T/C (second compound 0.003 µM, first compound 0.0316 µM): 1.5% | viability, T/C (second compound 0.003 µM, first compound 0.1 µM): 1.77% | viability, T/C (second compound 0.003 µM, first compound 0.316 µM): 2.41% | viability, T/C (second compound 0.003 µM, first compound 1 µM): 2.07% | viability, T/C (second compound 0.003 µM, first compound 3.16 µM): 1.2% | viability, T/C (second compound 0.003 µM, first compound 10 µM): 1.35%

Cn1ncnc1[C@H]1c2n[nH]c(=O)c3cc(F)cc(c23)N[C@@H]1c1ccc(F)cc1 + CC[C@@]1(O)C(=O)OCc2c1cc1n(c2=O)Cc2cc3c(CN(C)C)c(O)ccc3nc2-1
IC50 (second compound 0.003 µM): < 9.49 nM | IC50 (second compound 0.00949 µM): < 9.49 nM | IC50 (second compound 0.03 µM): < 9.49 nM | IC50 (second compound 0.0949 µM): < 9.49 nM | IC50 (second compound 0.3 µM): < 9.49 nM | viability, T/C [1]: 27.3% | viability, T/C [2]: 6.33% | viability, T/C [3]: 1.47% | viability, T/C [4]: 1.41% | viability, T/C [5]: 1.48% | viability, T/C [6]: 2.21% | viability, T/C [7]: 1.59% | viability, T/C [8]: 2.38% | viability, T/C [9]: 1.8% | viability, T/C [10]: 1.98% | viability, T/C [11]: 3.83% | viability, T/C [12]: 1.52% | viability, T/C [13]: 1.39% | viability, T/C [14]: 3.65% | viability, T/C [15]: 1.38% | viability, T/C [16]: 1.56% | viability, T/C [17]: 1.83% | viability, T/C [18]: 1.87% | viability, T/C [19]: 1.47% | viability, T/C [20]: 1.59% | viability, T/C [21]: 1.43% | viability, T/C [22]: 1.39% | viability, T/C [23]: 1.38% | viability, T/C [24]: 1.57% | viability, T/C [25]: 1.23% | viability, T/C [26]: 1.22% | viability, T/C [27]: 1.27% | viability, T/C [28]: 1.22% | viability, T/C [29]: 1.24% | viability, T/C [30]: 1.3%

Cc1sc2c(c1C)C(c1ccc(Cl)cc1)=NC(CC(=O)Nc1ccc(O)cc1)c1nnc(C)n1-2 (stereo not drawn) + CC[C@@]1(O)C(=O)OCc2c1cc1n(c2=O)Cc2cc3c(CN(C)C)c(O)ccc3nc2-1
IC50 (second compound 0.003 µM): 453 nM | IC50 (second compound 0.00949 µM): 11 nM | IC50 (second compound 0.03 µM): < 9.49 nM | IC50 (second compound 0.0949 µM): < 9.49 nM | IC50 (second compound 0.3 µM): < 9.49 nM | viability, T/C [1]: 96.6% | viability, T/C [2]: 85.2% | viability, T/C [3]: 89.1% | viability, T/C [4]: 61.3% | viability, T/C [5]: 27.2% | viability, T/C [6]: 1.67% | viability, T/C [7]: 55.5% | viability, T/C [8]: 21.2% | viability, T/C [9]: 29.5% | viability, T/C [10]: 2.24% | viability, T/C [11]: 0.92% | viability, T/C [12]: 0.93% | viability, T/C [13]: 1.53% | viability, T/C [14]: 17% | viability, T/C [15]: 1.42% | viability, T/C [16]: 1.1% | viability, T/C [17]: 0.9% | viability, T/C [18]: 0.76% | viability, T/C [19]: 1.43% | viability, T/C [20]: 1.5% | viability, T/C [21]: 1.55% | viability, T/C [22]: 0.99% | viability, T/C [23]: 0.71% | viability, T/C [24]: 15.8% | viability, T/C [25]: 1.23% | viability, T/C [26]: 1.1% | viability, T/C [27]: 0.98% | viability, T/C [28]: 0.97% | viability, T/C [29]: 0.73% | viability, T/C [30]: 0.63%

Cn1nnc2c(C(N)=O)ncn2c1=O
viability, T/C (compound 3.16 µM): 19.8% [middle of 10 runs] | viability, T/C (compound 10 µM): 5.8% [middle of 10 runs] | viability, T/C (compound 31.6 µM): 10.4% [middle of 10 runs]

O=C(c1cc(Cc2n[nH]c(=O)c3ccccc23)ccc1F)N1CCN(C(=O)C2CC2)CC1 + COc1cc2c(cc1O)CCNC21CSC2c3c(OC(C)=O)c(C)c4c(c3C(COC1=O)N1C(O)C3Cc5cc(C)c(OC)c(O)c5C(C21)N3C)OCO4
IC50 (second compound 30 pM): 5700 nM | IC50 (second compound 94.9 pM): 1830 nM | IC50 (second compound 0.0003 µM): < 94.9 nM | IC50 (second compound 0.000949 µM): < 94.9 nM | IC50 (second compound 0.003 µM): < 94.9 nM | viability, T/C (second compound 30 pM, first compound 0.0949 µM): 103% | viability, T/C (second compound 30 pM, first compound 0.3 µM): 97.2% | viability, T/C (second compound 30 pM, first compound 0.949 µM): 98.2% | viability, T/C (second compound 30 pM, first compound 3 µM): 88.1% | viability, T/C (second compound 30 pM, first compound 9.49 µM): 19.8% | viability, T/C (second compound 30 pM, first compound 30 µM): 5.66% | viability, T/C (second compound 94.9 pM, first compound 0.0949 µM): 85.7% | viability, T/C (second compound 94.9 pM, first compound 0.3 µM): 76.1% | viability, T/C (second compound 94.9 pM, first compound 0.949 µM): 96.7% | viability, T/C (second compound 94.9 pM, first compound 3 µM): 22.7% | viability, T/C (second compound 94.9 pM, first compound 9.49 µM): 11.6% | viability, T/C (second compound 94.9 pM, first compound 30 µM): 5.96% | viability, T/C (second compound 0.0003 µM, first compound 0.0949 µM): 11.3% | viability, T/C (second compound 0.0003 µM, first compound 0.3 µM): 2.62% | viability, T/C (second compound 0.0003 µM, first compound 0.949 µM): 33.6% | viability, T/C (second compound 0.0003 µM, first compound 3 µM): 22% | viability, T/C (second compound 0.0003 µM, first compound 9.49 µM): 3.44% | viability, T/C (second compound 0.0003 µM, first compound 30 µM): 6.61% | viability, T/C (second compound 0.000949 µM, first compound 0.0949 µM): 4.82% | viability, T/C (second compound 0.000949 µM, first compound 0.3 µM): 3.59% | viability, T/C (second compound 0.000949 µM, first compound 0.949 µM): 4.37% | viability, T/C (second compound 0.000949 µM, first compound 3 µM): 3.86% | viability, T/C (second compound 0.000949 µM, first compound 9.49 µM): 3.51% | viability, T/C (second compound 0.000949 µM, first compound 30 µM): 3.9% | viability, T/C [3]: 2.74% | viability, T/C [4]: 2.65% | viability, T/C [5]: 3.06% | viability, T/C [6]: 3.24% | viability, T/C (second compound 0.003 µM, first compound 9.49 µM): 3.55% | viability, T/C (second compound 0.003 µM, first compound 30 µM): 3.23%
